Measured values as given in patent US7071168B2, “Anti-cancer compounds and methods related thereto” (The Regents of the University of Colorado, priority 1998, dated 2006).

Test system: SCLC strain SHP-77
Test: Colorimetric tetrazolium (MTT) assay for cell survival, SCLC strain SHP-77
Type: cell-based, human
Procedure: In general, Anti-bradykinin activity was determined by the classical guinea pig ileum assay and on Chinese hamster ovary (CHO) cells expressing cloned human bradykinin B2 receptors. Anti-tumor activity was determined on cultured human cancer cell lines using the standard tetrazolium (MTT) assay.
Cell growth and survival were measured by a rapid colorimetric assay based on the tetrazolium salt MTT (3-(4,5-dimethylthiazol-2-yl)-2,5-diphenyl tetrazolium bromide) (Mosmann, J Immunol. Methods 65: 55–63, 1983, with minor modifications). Briefly, 1,000 normal lung fibroblasts or normal epithelial BEAS-2B cells, 1,000 or 5,000 viable non-SCLC cells or 10,000 viable SCLC cells were plated in 100 μL of growth medium in 96-well flat-bottomed microtiter plates. Cells were incubated overnight to allow recovery. Compounds to be tested were added to the cells in triplicate in a range of concentrations and the cells were incubated at 37° C., 5% CO2, with 100% humidity. Control cells were treated in the same way without antagonists. […] Plates were incubated for 4 days, allowing sufficient time for cell replication and compound-induced cell death to occur. On day 5, 25 μL of a 2 mg/mL solution of MTT (Sigma) dissolved in RMPI-1640was added to each well. The plate was incubated for 4 h at 37° C. The supernate was removed and the blue formazan complex was dissolved by adding 100 μL of 0.02 N HCl in 75% isopropanol to all wells. Absorbance was immediately determined using a scanning multiwell plate reader. B9870 caused 50% cell death at a concentration of 0.15 μM under these conditions.

Row | Substance | MTT: ED50 for killing of SCLC strain SHP-77 in vitro (Table 1, SHP-77, MTT, 4 days) | MTT: ED50 for killing of SCLC strain SHP-77 in vitro (Table 3, cyclic peptides)
1 | DDD-(DArg-Arg-Aud-Pac-2Nal-DArg-NH2)2 [M710] | 1.7 µM | 
2 | DDD-(DArg-Arg-Eac-Ser-DF5F-PFF-Arg)2 [M944] | 6.7 µM | 
3 | DDD-(DArg-Arg-Eac-Ser-DIgl-PFF-Arg)2 [M932] | 6.0 µM | 
4 | DDD-(DArg-PFF-Arg-NH2)2 [M818] | 60 µM | 
5 | DDD-(DArg-hPhe-Arg-NH2)2 [M560] | 50 µM | 
6 | DDD-(Eac-Arg-Digl-Oic-Arg)2 [B10198-2] | 15 µM | 
7 | Dca-hPhe-Arg [M542] | 80 µM | 
8 | Dcg-Digl-Oic-Arg [B9490] | >60 µM | 
9 | Dcg-hPhe-Arg [M558] | 100 µM | 
10 | Dmac-DArg-Arg-Aud-Ser-D5F5-Oic-Arg [M968] | 15 µM | 
11 | F5bz-DArg-Arg-Aud-Ser-D5F5-Oic-Arg [M958] | 18 µM | 
12 | F5bz-F5F-Arg [M132] | 60 µM | 
13 | F5c-DArg-Arg-Aud-Pac-2Nal-Arg [M698] | 7.1 µM | 
14 | F5c-DArg-hPhe-Arg [M612] | Inact | 
15 | F5c-PCF-Arg [M714] | Inact | 
16 | F5c-PFF-Arg-NH2 [M812] | 15 µM | 
17 | F5c-p-APa-Arg [M216] | >180 µM | 
18 | Pac-hPhe-Arg [M752-2] | Inact | 
19 | Ppa-PFF-Arg [M814] | Inact | 
20 | Pya-hPhe-Arg [M540] | >100 µM | 
21 | c[Arg-DNMF-DTrp-Phe-DTrp-Leu] [B10306] |  | Inact
22 | c[DArg-Arg Add-DIgl-PFF-Arg] [M878] |  | 7 µM
23 | c[DArg-Arg-Eac-DF5F-Oic-Arg] [M906] |  | 45 µM
24 | c[DArg-Arg-Eac-DIgl-PFF-Arg] [M896] |  | 65 µM
25 | c[Suc-DArg-Arg-Eac-Ser-DIgl-PaF]-Arg [M924] |  | 37 µM
26 | α-DDD-(ApC-F5F-Arg)2 [M930] | Inact | 
27 | α-DDD-(K-DArg-Arg-Eac-Ser-DF5F-Oic-Arg)2 [M950] | 6.7 µM | 
28 | α-DDD-(c[Lys-DArg-Arg-Pro-Hyp-Gly-Thi-Ser-DF5F-Oic-Arg])2 [B10312] |  | 3.8 µM
29 | α-Lys-DArg-Arg-Pro-Hyp-Gly-Igl-Ser-DIgl-Oic-Arg Sub-Arg-DNMF-DTrp-Phe-DTrp-Leu [B9950] | 8 µM | 
30 | ζ-SUB-(ApC-F5F-Arg)2 [M926] | Inact | 
